Source: PubChem BioAssay AID1963844 (Molecular Pharmacology Branch, DTP, NCI, 2024)

Tested on: 422866-222-R5-J1-PDC complex spheroid viability
Assay: Anticancer human tumor 422866-222-R5-J1-PDC patient-derived pancreatic adenocarcinoma cell line growth inhibition [POLQ]
Conditions: for IC50: curve of first compound; for viability, T/C: stronger effect = lower value
Procedure: Multicellular complex tumor spheroid response to Polymerase (POL) inhibitors (novobiocin, ART-558, RP6685) in combination with a variety of drugs and investigational agents in selected tumor cell lines
The POL inhibitors (novobiocin, ART-558, and RP6685) were evaluated both individually and in combination with standard of care and investigational anticancer small molecules within a complex spheroid model of solid tumors. . Complex spheroids include a stromal component modeled by human endothelial cells (HUVEC) and fibroblasts modeled by human mesenchymal stem cells (MSCs). The concentration ranges selected for each drug and investigational agent were based upon clinically achievable concentrations if the clinical Cmax of the agent was known.
Compounds. The drugs and investigational agents: novobiocin (NSC847541), ART-558 (NSC835418), RP-6685 (NSC848927), peposertib (NSC802822), ceralasertib (NSC780249), elimusertib (NSC800525), camonsertib (NSC841442), AZD-1390 (NSC803789), olaparib (NSC753686), talazoparib (NSC767125), rucaparib (NSC756644), sotorasib (NSC818433), MRTX-1133 (NSC836407), SN-38 (NSC673596), topotecan (NSC609699), epotoside (NSC141540), doxorubicin (NSC123127), gemcitabine (NSC613327), 5-fluorouracil (NSC19893), paclitaxel (NSC125973), vemurafenib (NSC761431), MSA-2 (NSC828583), SN-011 (NSC837082), adavosertib (NSC754352), prexasertib (NSC758257), carboplatin (NSC241240) and oxaliplatin (NSC266046), were obtained from the National Cancer Institute (NCI) Developmental Therapeutics Program Chemical Repository (21). The FDA-approved anticancer drug set is available from the Developmental Therapeutics Program at https://dtp.cancer.gov/organization/dscb/obtaining/. […] The stock solutions were prepared in dimethyl sulfoxide (DMSO, Sigma-Aldrich, St. Louis, MO, cat. D2650), except for the platinum compounds which were prepared in saline (Quality Biological, Gaithersburg, MD, cat. 114-055-101), at 800-fold the tested concentration and stored at -70 degrees C prior to their use. All drugs and investigational agents were tested over a range starting from a high concentration at or near the clinical Cmax and decreasing in half-log increments. If the clinical Cmax for an agent had not been determined, the highest concentration tested was 10 microM, except for SN-38, which was tested at a high concentration of 1 microM.
Cell Culture. All cells were maintained in an incubator at 37 degrees C and 5% CO2 with 95% humidity. The PDC lines were cultured according to standard operating procedures established by the NCI PDMR (https://pdmr.cancer.gov). Table 3 of the manuscript, lists the cell lines along with the number of the three cell types plated to form the mct-spheroids and media for tumor cell growth. After thawing, all PDC lines, except 997537-175-T-J1-PDC and 415267-285-R-J2-PDC, were cultured in Matrigel-coated flasks prepared with a working solution of 1X Ham's F-12 nutrient mix, without supplementation (Thermo Fisher Scientific, cat. 11765054), 100 U/mL penicillin-streptomycin (Thermo Fisher Scientific, cat. 15140122), and 2.5% Matrigel (Corning Inc., Corning, NY, cat. 354248) for the first three passages. The two PDC lines 997537-175-T-J1-PDC and 415267-285-R-J2-PDC were cultured on uncoated flasks. The 857933-349-R-J2-PDC line was cultured in 6C/Colon 1B media containing advanced DMEM/F-12 (Thermo Fisher Scientific, cat. 12634028), 10 mM HEPES (Thermo Fisher Scientific, cat. 15630080), 1X GlutaMAX supplement (Thermo Fisher Scientific, cat. 35050061), 0.1 mg/mL primocin (InvivoGen, San Diego, CA, cat. ant-pm-2), 10% defined fetal bovine serum, heat inactivated (HyClone Laboratories Inc., Logan, UT, cat. SH30070.03HI), 50% L-WRN conditioned media (ATCC, cat. CRL-3276), 1.25 mM N-Acetyl-L-cysteine (Sigma-Aldrich, cat. A9165), 10 mM nicotinamide (Sigma-Aldrich, cat. N0636), 1X B-27 supplement (Thermo Fisher Scientific, cat. 17504044), 1X N-2 supplement (Thermo Fisher Scientific, cat. […]

[1] = second compound 0.0316 µM, first compound 0.0316 µM
[2] = second compound 0.0316 µM, first compound 0.1 µM
[3] = second compound 0.0316 µM, first compound 0.316 µM
[4] = second compound 0.0316 µM, first compound 1 µM
[5] = second compound 0.0316 µM, first compound 3.16 µM
[6] = second compound 0.0316 µM, first compound 10 µM
[7] = second compound 0.1 µM, first compound 0.0316 µM
[8] = second compound 0.1 µM, first compound 0.1 µM
[9] = second compound 0.1 µM, first compound 0.316 µM
[10] = second compound 0.1 µM, first compound 1 µM
[11] = second compound 0.1 µM, first compound 3.16 µM
[12] = second compound 0.1 µM, first compound 10 µM
[13] = second compound 0.316 µM, first compound 0.0316 µM
[14] = second compound 0.316 µM, first compound 0.1 µM
[15] = second compound 0.316 µM, first compound 0.316 µM
[16] = second compound 0.316 µM, first compound 1 µM
[17] = second compound 0.316 µM, first compound 3.16 µM
[18] = second compound 0.316 µM, first compound 10 µM
[19] = second compound 1 µM, first compound 0.0316 µM
[20] = second compound 1 µM, first compound 0.1 µM
[21] = second compound 1 µM, first compound 0.316 µM
[22] = second compound 1 µM, first compound 1 µM
[23] = second compound 1 µM, first compound 3.16 µM
[24] = second compound 1 µM, first compound 10 µM
[25] = second compound 3.16 µM, first compound 0.0316 µM
[26] = second compound 3.16 µM, first compound 0.1 µM
[27] = second compound 3.16 µM, first compound 0.316 µM
[28] = second compound 3.16 µM, first compound 1 µM
[29] = second compound 3.16 µM, first compound 3.16 µM
[30] = second compound 3.16 µM, first compound 10 µM
[31] = second compound 10 µM, first compound 0.0316 µM
[32] = second compound 10 µM, first compound 0.1 µM
[33] = second compound 10 µM, first compound 0.316 µM
[34] = second compound 10 µM, first compound 1 µM
[35] = second compound 10 µM, first compound 3.16 µM
[36] = second compound 10 µM, first compound 10 µM
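Note: spheroids exposed to compounds for one week before readout.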
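Throughout, for viability, T/C: percent of DMSO vehicle wells luminescence so 100% = untreated viability.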

For C=CC(=O)N1CCN(c2nc(=O)n(-c3c(C)ccnc3C(C)C)c3nc(-c4c(O)cccc4F)c(F)cc23)C(C)C1 (stereo unspecified) + Cc1cccc(N(C)C(=O)C2C(O)CCN2c2nc(C)cc(C(F)(F)F)c2C#N)c1, the IC50 (second compound 0.0316 µM) was < 31.6 nM, the IC50 (second compound 0.1 µM) was < 31.6 nM and the IC50 (second compound 0.316 µM) was < 31.6 nM. For the same compound, the IC50 (second compound 1 µM) was < 31.6 nM, the IC50 (second compound 3.16 µM) was < 31.6 nM and the IC50 (second compound 10 µM) was < 31.6 nM. The viability, T/C [1] was 29.6%, the viability, T/C [2] was 26.5% and the viability, T/C [3] was 24.8%. The viability, T/C [4] was 22.2%, the viability, T/C [5] was 23.5% and the viability, T/C [6] was 27%. It also gave a viability, T/C [7] of 27.8%, a viability, T/C [8] of 25.2% and a viability, T/C [9] of 25%. It also gave a viability, T/C [10] of 23.5%, a viability, T/C [11] of 21.2% and a viability, T/C [12] of 29.3%. It also gave a viability, T/C [13] of 34.9%, a viability, T/C [14] of 22.1% and a viability, T/C [15] of 25.3%. It also gave a viability, T/C [16] of 26%, a viability, T/C [17] of 22.8% and a viability, T/C [18] of 25.5%. The viability, T/C [19] was 30.3%, the viability, T/C [20] was 25.7% and the viability, T/C [21] was 26.1%. It also gave a viability, T/C [22] of 21.8%, a viability, T/C [23] of 26.7% and a viability, T/C [24] of 27.4%. The viability, T/C [25] was 32.3%, the viability, T/C [26] was 28.7% and the viability, T/C [27] was 31.4%. It also gave a viability, T/C [28] of 25.9%, a viability, T/C [29] of 23.7% and a viability, T/C [30] of 25.7%. The viability, T/C [31] was 35.3%, the viability, T/C [32] was 28% and the viability, T/C [33] was 25.1%. For the same compound, the viability, T/C [34] was 26%, the viability, T/C [35] was 32% and the viability, T/C [36] was 28.3%.
COc1cc2cc(C(=O)CCC(=O)O)sc2cc1OC + Cc1cccc(N(C)C(=O)C2C(O)CCN2c2nc(C)cc(C(F)(F)F)c2C#N)c1 was tested, and the IC50 (second compound 0.0316 µM) was > 10000 nM, the IC50 (second compound 0.1 µM) was > 10000 nM and the IC50 (second compound 0.316 µM) was > 10000 nM. The IC50 (second compound 1 µM) was > 10000 nM, the IC50 (second compound 3.16 µM) was > 10000 nM and the IC50 (second compound 10 µM) was > 10000 nM. It also gave a viability, T/C [1] of 95.6%, a viability, T/C [2] of 106% and a viability, T/C [3] of 98.6%. For the same compound, the viability, T/C [4] was 90.5%, the viability, T/C [5] was 85.4% and the viability, T/C [6] was 103%. For the same compound, the viability, T/C [7] was 101%, the viability, T/C [8] was 91.1% and the viability, T/C [9] was 82.6%. It also gave a viability, T/C [10] of 101%, a viability, T/C [11] of 75.5% and a viability, T/C [12] of 121%. The viability, T/C [13] was 116%, the viability, T/C [14] was 90.3% and the viability, T/C [15] was 91.8%. For the same compound, the viability, T/C [16] was 93.4%, the viability, T/C [17] was 93.7% and the viability, T/C [18] was 116%. The viability, T/C [19] was 94.9%, the viability, T/C [20] was 113% and the viability, T/C [21] was 98.2%. It also gave a viability, T/C [22] of 80.3%, a viability, T/C [23] of 87.9% and a viability, T/C [24] of 117%. The viability, T/C [25] was 107%, the viability, T/C [26] was 101% and the viability, T/C [27] was 109%. It also gave a viability, T/C [28] of 93.1%, a viability, T/C [29] of 85.7% and a viability, T/C [30] of 121%. It also gave a viability, T/C [31] of 88.6%, a viability, T/C [32] of 93% and a viability, T/C [33] of 103%. For the same compound, the viability, T/C [34] was 75.2%, the viability, T/C [35] was 79.6% and the viability, T/C [36] was 112%.
Compound COc1ccc([C@@H](O)c2cc(-c3ncnc4cc(N5CCOCC5)ccc34)c(F)cc2Cl)nn1 + Cc1cccc(N(C)C(=O)C2C(O)CCN2c2nc(C)cc(C(F)(F)F)c2C#N)c1 has an IC50 (second compound 0.0316 µM) of 2600 nM, an IC50 (second compound 0.1 µM) of 4620 nM and an IC50 (second compound 0.316 µM) of 2420 nM. For the same compound, the IC50 (second compound 1 µM) was 1920 nM, the IC50 (second compound 3.16 µM) was 1650 nM and the IC50 (second compound 10 µM) was 2280 nM. For the same compound, the viability, T/C [1] was 91.6%, the viability, T/C [2] was 92.2% and the viability, T/C [3] was 77.4%. For the same compound, the viability, T/C [4] was 62.1%, the viability, T/C [5] was 49.1% and the viability, T/C [6] was 35.5%. For the same compound, the viability, T/C [7] was 92%, the viability, T/C [8] was 81.3% and the viability, T/C [9] was 83.2%. For the same compound, the viability, T/C [10] was 64.5%, the viability, T/C [11] was 54.5% and the viability, T/C [12] was 42.3%. For the same compound, the viability, T/C [13] was 108%, the viability, T/C [14] was 86.3% and the viability, T/C [15] was 70.9%. The viability, T/C [16] was 61.3%, the viability, T/C [17] was 43.9% and the viability, T/C [18] was 41.4%. The viability, T/C [19] was 89.9%, the viability, T/C [20] was 81.1% and the viability, T/C [21] was 85.9%. It also gave a viability, T/C [22] of 58.5%, a viability, T/C [23] of 44.6% and a viability, T/C [24] of 33.3%. For the same compound, the viability, T/C [25] was 79.8%, the viability, T/C [26] was 90.7% and the viability, T/C [27] was 80.3%. The viability, T/C [28] was 56.4%, the viability, T/C [29] was 43.1% and the viability, T/C [30] was 37.1%. For the same compound, the viability, T/C [31] was 93.3%, the viability, T/C [32] was 83.8% and the viability, T/C [33] was 73.5%. The viability, T/C [34] was 59%, the viability, T/C [35] was 46% and the viability, T/C [36] was 37.6%.
